Reference: US20090093493A1, “1-PHENYLALCOXY-2-BETA-PHENYLETHYL DERIVATIVES AS P-GLYCOPROTEIN (P-GP) INHIBITORS USEFUL IN DRUG RESISTANCE EVENTS” (priority 2007, published 2009)
Like-named read-outs stand apart in the source and are kept apart here.

Experiments:
P-glycoprotein [1] = target: T1, P-glycoprotein (Homo sapiens, UniProt P08183); assay: Doxorubicin accumulation in MCF7/Adr cells after pretreatment with compound (flow cytometry); conditions: for endocellular accumulation: above-described assays
T1 sequence (P08183 whole entry): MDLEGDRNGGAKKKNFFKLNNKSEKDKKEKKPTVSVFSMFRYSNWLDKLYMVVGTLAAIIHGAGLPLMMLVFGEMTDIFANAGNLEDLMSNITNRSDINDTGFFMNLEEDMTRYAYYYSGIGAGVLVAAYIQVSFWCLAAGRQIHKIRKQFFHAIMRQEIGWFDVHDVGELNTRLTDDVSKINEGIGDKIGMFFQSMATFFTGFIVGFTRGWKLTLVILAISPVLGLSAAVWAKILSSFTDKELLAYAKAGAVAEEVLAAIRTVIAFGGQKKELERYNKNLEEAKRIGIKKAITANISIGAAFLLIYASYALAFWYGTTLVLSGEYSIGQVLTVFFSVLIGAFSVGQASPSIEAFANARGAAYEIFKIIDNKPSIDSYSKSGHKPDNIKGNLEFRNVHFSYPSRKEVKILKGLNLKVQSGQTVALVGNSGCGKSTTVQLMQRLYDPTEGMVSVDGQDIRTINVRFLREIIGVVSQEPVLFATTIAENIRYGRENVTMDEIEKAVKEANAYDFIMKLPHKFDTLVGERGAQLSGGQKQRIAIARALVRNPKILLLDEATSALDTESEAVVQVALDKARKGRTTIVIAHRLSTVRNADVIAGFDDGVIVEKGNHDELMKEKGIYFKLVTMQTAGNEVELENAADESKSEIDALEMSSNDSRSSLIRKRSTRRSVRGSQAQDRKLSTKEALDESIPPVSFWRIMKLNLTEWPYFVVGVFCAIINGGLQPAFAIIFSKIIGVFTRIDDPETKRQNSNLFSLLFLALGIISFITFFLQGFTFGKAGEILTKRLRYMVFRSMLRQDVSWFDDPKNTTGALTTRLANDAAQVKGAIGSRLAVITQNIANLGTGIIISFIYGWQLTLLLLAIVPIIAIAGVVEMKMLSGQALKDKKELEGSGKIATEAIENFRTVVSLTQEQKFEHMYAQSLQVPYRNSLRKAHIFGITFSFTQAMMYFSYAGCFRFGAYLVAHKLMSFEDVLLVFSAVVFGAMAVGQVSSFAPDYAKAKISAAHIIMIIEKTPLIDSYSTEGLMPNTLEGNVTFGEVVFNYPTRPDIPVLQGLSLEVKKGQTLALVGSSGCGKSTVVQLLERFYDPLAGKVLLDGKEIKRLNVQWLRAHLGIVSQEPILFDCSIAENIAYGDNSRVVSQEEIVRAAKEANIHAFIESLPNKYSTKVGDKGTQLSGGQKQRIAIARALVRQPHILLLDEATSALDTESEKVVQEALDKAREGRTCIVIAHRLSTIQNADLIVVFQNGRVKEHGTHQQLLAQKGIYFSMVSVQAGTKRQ
Experimental: (§1) Another assay is performed on MCF-7/ADr cells. These cells, resistant to the chemotherapy agent doxorubicin, are exposed for some hours to the compound under examination and subsequently treated with doxorubicin. The amount of doxorubicin entering the cell following treatment with the compounds under examination is then measured.
(§2) At the end of the incubation, the incubation medium containing the compound under examination was removed, and fresh medium containing 50 μM doxorubicin was added for 24 h. The negative control consisted of plates containing an alike number of cells untreated with the compound. At the end of the 24 h, the medium was removed and the cells split and prepared according to standard procedure for flow cytometry analysis.

P-gp [2] = target: T2, P-gp (Homo sapiens, UniProt P08183); assay: Classification of compounds interfering with P-gp activity (method of Polli et al. / Taub et al.); type: cell-based; parameters: apparent permeability determined in Caco-2 cells; endogenous in cells; host or cells: Caco-2; conditions: above-described assays
T2 sequence (P08183 whole entry): as above
Text: The biological assays performed verify a) transport for each for each candidate compound by P-gp (apparent permeability determined in Caco-2 cells); b) ATP-ase activation in Caco-2 cells; c) inhibition of [^3H] Vinblastine basolateral-apical transport (in Caco-2 cells) and of rhodamine (in guinea pig ileum).

P-glycoprotein [3] = target: T1, P-glycoprotein
Experimental: as §1, §2

P-gp [4] = target: T2, P-gp; conditions: reported in literature; cited from earlier work
[5] = MCF7/Adr, 20 μM compound for 120 min, then 50 μM doxorubicin for 24 h

Compound | inletting of doxorubicin in the cells (P-glycoprotein [1]; [5]) | endocellular accumulation (P-glycoprotein [1]) | other results
c1ccc(CCc2ccccc2OCc2ccccc2)cc1 [EB 30, 1-(benzyloxy)-2-(2-phenylethyl)benzene] | – | – | Category of interference with P-gp activity (P-gp [2]): IIB
COc1cccc(CCc2ccccc2OCCCN2CCN(c3ncccn3)CC2)c1 [EB25, 3-{2-[2-(3-methoxyphenyl)ethyl]phenoxy}propan-1-[4-(2-pyrimidyl)piperazine]] | – | – | endocellular accumulation (P-glycoprotein [3]): very high
COc1cc2c(cc1OC)CN(CCc1ccc(NC(=O)c3cccc4c(=O)c5cccc(OC)c5[nH]c34)cc1)CC2 [GF120918] | – | – | classification as pure inhibitor of P-gp (P-gp [4]): sole pure inhibitor of P-gp

Continued, in another order:

inletting of doxorubicin in the cells (P-glycoprotein [1]; [5]) | endocellular accumulation (P-glycoprotein [1]) | Compound | other results
increase | very high | COc1cccc(CCc2ccccc2OCc2cccc(OC)c2)c1 [EB27, 1-[(3-methoxybenzyl)oxy]-2-[2-(3-methoxyphenyl)ethyl]benzene] | –
increase | very high | COc1cccc(CCc2ccccc2OCc2ccccn2)c1 [EB12, 2({2-[2-(3-methoxyphenyl)ethyl]phenoxy}methyl]pyridine] | effectiveness in P-glycoprotein inhibition relative to Verapamil and EB27 (P-glycoprotein [1]; [5]): 5 fold
